Measurements published in patent US8263606B2 (Xenon Pharmaceuticals Inc., priority 2008, dated 2012).

What was measured:
sodium channel = experiment: Guanidine influx assay (14C-guanidine radiotracer flux, in vitro); type: cell-based, human or rat; conditions: guanidine influx assay using a known cell line that expresses a sodium channel
Method in brief: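 Aconitine holds channels open while 14C-guanidine enters human or rat sodium-channel-expressing cells in choline-substituted low-sodium saline, with test agent present at ambient temperature. Retained tracer is scintillation-counted and IC50 fitted by a four-parameter logistic model.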

CYP3A4 = CYP3A4 (Homo sapiens, UniProt P08684); experiment: Cytochrome P450 (CYP450) Inhibition Assay, CYP3A4 (Vivid fluorescence, BOMCC substrate); conditions: human, P450 Baculosomes (recombinant CYP3A4), probe BOMCC (Vivid substrate)
Chain of CYP3A4 (P08684 whole entry): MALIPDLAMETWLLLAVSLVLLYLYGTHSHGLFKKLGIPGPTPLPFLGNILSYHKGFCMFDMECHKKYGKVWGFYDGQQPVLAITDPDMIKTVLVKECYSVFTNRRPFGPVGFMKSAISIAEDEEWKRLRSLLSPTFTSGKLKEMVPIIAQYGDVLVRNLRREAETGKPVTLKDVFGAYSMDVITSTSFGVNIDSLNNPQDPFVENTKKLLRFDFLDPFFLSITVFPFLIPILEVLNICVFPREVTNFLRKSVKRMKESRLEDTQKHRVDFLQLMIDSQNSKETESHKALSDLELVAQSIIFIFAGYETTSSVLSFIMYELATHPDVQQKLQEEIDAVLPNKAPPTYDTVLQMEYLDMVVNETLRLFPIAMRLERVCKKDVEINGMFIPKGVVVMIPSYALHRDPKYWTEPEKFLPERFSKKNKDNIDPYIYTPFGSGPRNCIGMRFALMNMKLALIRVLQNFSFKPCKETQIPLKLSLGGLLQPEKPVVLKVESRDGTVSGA

SMILES	IC50 (sodium channel; activity level class) [nM]	inhibition at 10 µM (CYP3A4) [%]	melting point [°C]	IC50 (sodium channel) [nM]
COc1cc2c(cc1F)C1(CO2)C(=O)N(Cc2ccc(C(F)(F)F)o2)c2ccccc21 (stereo not drawn) [Example 9.30, 5-fluoro-6-methoxy-1′-{[5-(trifluoromethyl)furan-2-yl]methyl}spiro[1-benzofuran-3,3′-indol]-2′(1′H)-one]	100 to 1000	> 50	45 to 47	–
O=C1N(Cc2cccnc2)c2ccccc2C12COc1cc(F)c(F)cc12 (stereo not drawn) [Example 9.31, 5,6-difluoro-1′-(pyridin-3-ylmethyl)spiro[1-benzofuran-3,3′-indol]-2′(1′H)-one]	1000 to 10000	> 50	175 to 177	–
COc1ccc2c(c1)OCC21C(=O)N(Cc2ccccn2)c2ccccc21 (stereo not drawn) [Example 9.33, 6-methoxy-1′-(pyridin-2-ylmethyl)-2H-spiro[benzofuran-3,3′-indolin]-2′-one]	1 to 100	< 50	122 to 123	–
Cc1noc2cc3c(cc12)C1(CO3)C(=O)N(Cc2ccccc2C(F)(F)F)c2ccccc21 (stereo not drawn) [Example 9.41, 3-methyl-1′-[2-(trifluoromethyl)benzyl]spiro[furo[3,2-f][1,2]benzisoxazole-5,3′-indol]-2′(1′H)-one]	100 to 1000	> 50	192 to 194	–
Cc1noc2cc3c(cc12)C1(CO3)C(=O)N(Cc2ncccc2C(F)(F)F)c2ccccc21 (stereo not drawn) [Example 9.42, 3-methyl-1′-{[3-(trifluoromethyl)pyridin-2-yl]methyl}spiro[furo[3,2-f][1,2]benzisoxazole-5,3′-indol]-2′(1′H)-one]	100 to 1000	> 50	221 to 222	–
COc1cc2c(cc1C#N)C1(CO2)C(=O)N(Cc2ccccn2)c2ccccc21 (stereo not drawn) [Example 9.47, 6-methoxy-2′-oxo-1′-(pyridin-2-ylmethyl)-1′,2′-dihydrospiro[1-benzofuran-3,3′-indole]-5-carbonitrile]	1000 to 10000	> 50	187 to 189	–
N#Cc1cc2c(cc1F)OCC21C(=O)N(Cc2ccccn2)c2ccccc21 (stereo not drawn) [Example 9.48, 6-fluoro-2′-oxo-1′-(pyridin-2-ylmethyl)-1′,2′-dihydrospiro[1-benzofuran-3,3′-indole]-5-carbonitrile]	1000 to 10000	> 50	108 to 109	–
N#Cc1cc2c(cc1F)OCC21C(=O)N(Cc2ncccc2C(F)(F)F)c2ccccc21 (stereo not drawn) [Example 9.51, 6-fluoro-2′-oxo-1′-{[3-(trifluoromethyl)pyridin-2-yl]methyl}-1′,2′-dihydrospiro[1-benzofuran-3,3′-indole]-5-carbonitrile]	–	< 50	209 to 211	1000 to 10000
Cc1noc2cc3c(cc12)C1(CO3)C(=O)N(CCC(C)C)c2ccccc21 (stereo not drawn) [Example 9.55, 3-methyl-1′-(3-methylbutyl)spiro[furo[3,2-f][1,2]benzisoxazole-5,3′-indol]-2′(1′H)-one]	–	> 50	135 to 138	1 to 100
Cc1noc2cc3c(cc12)C1(CO3)C(=O)N(Cc2cnccn2)c2ccccc21 (stereo not drawn) [Example 9.56, 3-methyl-1′-(pyrazin-2-ylmethyl)spiro[furo[3,2-f][1,2]benzisoxazole-5,3′-indol]-2′(1′H)-one]	–	< 50	170 to 173	1 to 100
Cc1noc2cc3c(cc12)C1(CO3)C(=O)N(Cc2ncccc2F)c2ccccc21 (stereo not drawn) [Example 9.57, 1′-[(3-fluoropyridin-2-yl)methyl]-3-methylspiro[furo[3,2-f][1,2]benzisoxazole-5,3′-indol]-2′(1′H)-one]	–	< 50	167 to 169	100 to 1000
O=C1c2ccccc2C(=O)N1CCCN1C(=O)C2(COc3cc4c(cc32)CCO4)c2ccccc21 (stereo not drawn) [Example 9.66, 2-[3-(2′-oxo-5,6-dihydrospiro[benzo[1,2-b:5,4-b′]difuran-3,3′-indol]-1′(2′H)-yl)propyl]-1H-isoindole-1,3(2H)-dione]	–	> 50	214 to 217	1 to 100
O=C1N(Cc2ccc(OCc3ccccc3)cn2)c2ccccc2C12COc1ccc3nonc3c12 (stereo not drawn) [Example 9.67, 1-{[5-(benzyloxy)pyridin-2-yl]methyl}spiro[furo[3,2-e][2,1,3]benzoxadiazole-8,3′-indol]-2′(1′H)-one]	–	< 50	209 to 212	100 to 1000
COCCOCCN1C(=O)C2(COc3cc4c(cc32)OCCO4)c2c1ccc1ncsc21 (stereo not drawn) [Example 9.71, 6′-[2-(2-methoxyethoxy)ethyl]-2,3-dihydrospiro[furo[2,3-g][1,4]benzodioxine-8,8′-[1,3]thiazolo[5,4-e]indol]-7′(6′H)-one]	–	> 50	156 to 158	100 to 1000

Results, then the molecule that gave them:

IC50 (sodium channel; activity level class) [nM]	inhibition at 10 µM (CYP3A4) [%]	melting point [°C]	IC50 (sodium channel) [nM]	SMILES
1 to 100	> 50	164 to 165	–	COc1ccc2c(c1)OCC21C(=O)N(Cc2cccnc2)c2ccccc21 (stereo not drawn) [Example 9.34, 6-methoxy-1′-(pyridin-3-ylmethyl)spiro[1-benzofuran-3,3′-indol]-2′(1′H)-one]
100 to 1000	< 50	87 to 89	–	O=C1N(Cc2ccc(OCc3ccccc3)cc2)c2ccccc2C12COc1cc3c(cc12)OCCO3 (stereo not drawn) [Example 9.37, 1′-[4-(benzyloxy)benzyl]-2,3-dihydrospiro[furo[2,3-g][1,4]benzodioxine-8,3′-indol]-2′(1′H)-one]
100 to 1000	< 50	169 to 170	–	O=C1N(Cc2ccc(OCc3ccccc3)cc2)c2ccccc2C12COc1cc3c(cc12)CCO3 (stereo not drawn) [Example 9.38, 1′-[4-(benzyloxy)benzyl]-5,6-dihydrospiro[benzo[1,2-b:5,4-b′]difuran-3,3′-indol]-2′(1′H)-one]
100 to 1000	< 50	151 to 153	–	O=C1N(Cc2ccc(OCc3ccccc3)cc2)c2ccccc2[C@]12COc1cc3c(cc12)OCCO3 [Example 9.39, (8S)-1′-[4-(Benzyloxy)Benzyl]-2,3-Dihydrospiro[Furo[2,3-g][1,4]Benzodioxine-8,3′-Indol]-2′(1′H)-One]
100 to 1000	< 50	238 to 239	–	CC(C)(C)OC(=O)Nc1ccc(CN2C(=O)C3(COc4cc5c(cc43)OCCO5)c3ccccc32)cn1 (stereo not drawn) [Example 9.40, tert-butyl {5-[(2′-oxo-2,3-dihydrospiro[furo[2,3-g][1,4]benzodioxine-8,3′-indol]-1′(2′H)-yl)methyl]pyridin-2-yl}carbamate]
1 to 100	< 50	37 to 38	–	O=C1N(CCCOCc2ccccc2)c2ccccc2C12COc1cc3c(cc12)OCCO3 (stereo not drawn) [Example 9.43, 1′-[3-(benzyloxy)propyl]-2,3-dihydrospiro[furo[2,3-g][1,4]-benzodioxine-8,3′-indol]-2′(1′H)-one]
1 to 100	< 50	58 to 59	–	CCOC(=O)CN1C(=O)C2(COc3cc4c(cc32)OCCO4)c2ccccc21 (stereo not drawn) [Example 9.44, ethyl (2′-oxo-2,3-dihydrospiro[furo[2,3-g][1,4]benzodioxine-8,3′-indol]-1′(2′H)-yl)acetate]
1 to 100	> 50	55 to 57	–	CC1(C)OC[C@H](CN2C(=O)C3(COc4cc5c(cc43)OCCO5)c3ccccc32)O1 (stereo partly drawn) [Example 9.45, 1′-{[(4S)-2,2-dimethyl-1,3-dioxolan-4-yl}methyl]-2,3-dihydrospiro[furo[2,3-g][1,4]benzodioxine-8,3′-indol]-2′(1′H)-one]
100 to 1000	> 50	207 to 208	–	COc1ccc(CN2C(=O)C3(COc4cc(OC)c(C#N)cc43)c3ccccc32)cc1 (stereo not drawn) [Example 9.46, 6-methoxy-1′-(4-methoxybenzyl)-2′-oxo-1′,2′-dihydrospiro[1-benzofuran-3,3′-indole]-5-carbonitrile]
–	> 50	89 to 97	1 to 100	COC(=O)c1cccc(CN2C(=O)C3(COc4cc5c(cc43)OCCO5)c3ccccc32)c1 (stereo not drawn) [Example 9.53, methyl 3-[(2′-oxo-2,3-dihydrospiro[furo[2,3-g][1,4]benzodioxine-8,3′-indol]-1′(2′H)-yl)methyl]benzoate]
–	< 50	148 to 152	100 to 1000	COC(=O)c1coc(CN2C(=O)C3(COc4cc5onc(C)c5cc43)c3ccccc32)n1 (stereo not drawn) [Example 9.58, methyl 2-[(3-methyl-2′-oxospiro[furo[3,2-f][1,2]benzisoxazole-5,3′-indol]-1′(2′H)-yl)methyl]-1,3-oxazole-4-carboxylate]
–	< 50	167 to 169	1 to 100	COC(=O)c1ccc(CN2C(=O)C3(COc4cc5c(cc43)OCCO5)c3ccccc32)cc1 (stereo not drawn) [Example 9.59, methyl 4-[(2′-oxo-2,3-dihydrospiro[furo[2,3-g][1,4]benzodioxine-8,3′-indol]-1′(2′H)-yl)methyl]benzoate]
–	> 50	88 to 100	100 to 1000	O=C1N(CC2CN(Cc3ccccc3)CCO2)c2ccccc2C12COc1cc3c(cc12)OCCO3 (stereo not drawn) [Example 9.60, 1′-[(4-benzylmorpholin-2-yl)methyl]-2,3-dihydrospiro[furo[2,3-g][1,4]benzodioxine-8,3′-indol]-2′(1′H)-one]
